Test system: 521955-158-R2-J5-PDC complex spheroid viability
Assay: Anticancer human tumor 521955-158-R2-J5-PDC patient-derived pancreatic carcinoma cell line growth inhibition [GQUAD]
Conditions: for viability, T/C: stronger effect = lower value
From the text: DNA G-quadruplex Stabilizer Agents in Combinations in Complex Spheroids
A high-throughput screen of multi-cell type tumor spheroids was designed to identify active combinations of DNA G-quadruplex stabilizer agents and targeted small molecules. Complex spheroids include a stromal component modeled by human endothelial cells (HUVEC) and fibroblasts modeled by human mesenchymal stem cells (MSCs). The concentration ranges selected for each drug and investigational agent were based upon clinically achievable concentrations if the clinical Cmax of the agent was known.
Compounds. The drugs and investigational agents: pidnarulex (CX-5461; NSC782164), APTO-253 (NSC789042), BRACO-19 (NSC847499), peposertib (NSC802822), ceralasertib (NSC780249), elimusertib (NSC800525), camonsertib (NSC841442), AZD-1390 (NSC803789), olaparib (NSC753686), talazoparib (NSC767125), ART-558 (NSC835418), sotorasib (NSC818433), MRTX-1133 (NSC836407), SN-38 (NSC673596), topotecan (NSC609699), etoposide (NSC141540), doxorubicin (NSC123127), gemcitabine (NSC613327), 5-fluorouracil (NSC19893), paclitaxel (NSC125973), vemurafenib (NSC761431), panobinostat (NSC761190), R-306465 (JNJ-16241199; NSC773264), adavosertib (NSC754352), TP-3654 (NSC805149), carboplatin (NSC241240), KSQ-4279 (NSC840948), and staurosporine (NSC755774) were obtained from the National Cancer Institute (NCI) Developmental Therapeutics Program Chemical Repository (34). The FDA-approved anticancer drug set is available from the NCI Developmental Therapeutics Program. […] The stock solutions were prepared in dimethyl sulfoxide (DMSO, Sigma-Aldrich, St. Louis, MO, cat. D2650) at 800-fold the tested concentration and stored at -70 degrees C prior to their use. All drugs and investigational agents were tested over a range starting from a high concentration at or near the clinical Cmax and decreasing in half-log increments. If the clinical Cmax for an agent had not been determined, the highest concentration tested was 10 microM.
2.3 Cell Culture. All cells were maintained in an incubator at 37 degrees C and 5% CO2 with 95% humidity. The PDC lines were cultured according to standard operating procedures established by the NCI PDMR. All PDCs were thawed and cultured in Matrigel-coated flasks prepared with a working solution of 1X Ham's F-12 nutrient mix, without supplementation (Invitrogen, cat. 11765054), 100 U/mL penicillin-streptomycin (Invitrogen, cat. 15140122), and 2.5% Matrigel (Corning Inc., cat. 354248) for the first three passages. The 857933-349-R-J2-PDC line was cultured in 6C/Colon 1B media, which includes advanced DMEM/F-12 (Thermo Fisher Scientific, cat. 12634028), 10 mM HEPES (Thermo Fisher Scientific, cat. 15630080), 1X GlutaMAX supplement (Thermo Fisher Scientific, cat. 35050061), 0.1 mg/mL primocin (InvivoGen, cat. ant-pm-2), 10% defined fetal bovine serum, heat inactivated (HyClone Laboratories Inc., cat. SH30070.03HI), 50% L-WRN conditioned media (ATCC, cat. CRL-3276), 1.25 mM N-Acetyl-L-cysteine (Sigma-Aldrich, cat. A9165), 10 mM nicotinamide (Sigma-Aldrich, cat. N0636), 1X B-27 supplement (Thermo Fisher Scientific, cat. 17504044), 1X N-2 supplement (Thermo Fisher Scientific, cat. 17502048), 10 microM Y-27632 dihydrochloride (Tocris Bioscience, cat. 1254), and 50 ng/mL human EGF recombinant protein (Thermo Fisher Scientific, cat. PHG0311). The 485176-168-R4-J1-PDC line was cultured in Panc media, which includes all 6C/Colon 1B media components plus 100 ng/mL human FGF-10 (Thermo Fisher Scientific, cat. 100-26), 500 nM SB-431542 (Selleckchem, cat. S1067), and gastrin (Tocris, cat. 3006).
[…]

[1] = curve of first compound, second compound 0.0316 µM
[2] = curve of first compound, second compound 0.1 µM
[3] = curve of first compound, second compound 0.316 µM
[4] = curve of first compound, second compound 1 µM
[5] = curve of first compound, second compound 3.16 µM
[6] = curve of first compound, second compound 10 µM
[7] = second compound 0.0316 µM, first compound 0.0316 µM
[8] = second compound 0.0316 µM, first compound 0.1 µM
[9] = second compound 0.0316 µM, first compound 0.316 µM
[10] = second compound 0.0316 µM, first compound 1 µM
[11] = second compound 0.0316 µM, first compound 3.16 µM
[12] = second compound 0.0316 µM, first compound 10 µM
[13] = second compound 0.1 µM, first compound 0.0316 µM
[14] = second compound 0.1 µM, first compound 0.1 µM
[15] = second compound 0.1 µM, first compound 0.316 µM
[16] = second compound 0.1 µM, first compound 1 µM
[17] = second compound 0.1 µM, first compound 3.16 µM
[18] = second compound 0.1 µM, first compound 10 µM
[19] = second compound 0.316 µM, first compound 0.0316 µM
[20] = second compound 0.316 µM, first compound 0.1 µM
[21] = second compound 0.316 µM, first compound 0.316 µM
[22] = second compound 0.316 µM, first compound 1 µM
[23] = second compound 0.316 µM, first compound 3.16 µM
[24] = second compound 0.316 µM, first compound 10 µM
[25] = second compound 1 µM, first compound 0.0316 µM
[26] = second compound 1 µM, first compound 0.1 µM
[27] = second compound 1 µM, first compound 0.316 µM
[28] = second compound 1 µM, first compound 1 µM
[29] = second compound 1 µM, first compound 3.16 µM
[30] = second compound 1 µM, first compound 10 µM
[31] = second compound 3.16 µM, first compound 0.0316 µM
[32] = second compound 3.16 µM, first compound 0.1 µM
[33] = second compound 3.16 µM, first compound 0.316 µM
[34] = second compound 3.16 µM, first compound 1 µM
[35] = second compound 3.16 µM, first compound 3.16 µM
[36] = second compound 3.16 µM, first compound 10 µM
[37] = second compound 10 µM, first compound 0.0316 µM
[38] = second compound 10 µM, first compound 0.1 µM
[39] = second compound 10 µM, first compound 0.316 µM
[40] = second compound 10 µM, first compound 1 µM
[41] = second compound 10 µM, first compound 3.16 µM
[42] = second compound 10 µM, first compound 10 µM
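Note: spheroids exposed to agents for one week before reading.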
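Throughout, for viability, T/C: 100% = DMSO vehicle control viability.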

`CC(C)n1c(=O)n(C)c2cnc3cc(F)c(-c4ccc(OCCCN5CCCCC5)nc4)cc3c21` + Cc1cnc(CNC(=O)c2c(=O)c3ccc(N4CCCN(C)CC4)nc3n3c2sc2ccccc23)cn1 showed an IC50 [1] of over 10 µM, an IC50 [2] of over 10 µM and an IC50 [3] of under 0.0316 µM. For the same compound, the IC50 [4] was under 0.0316 µM, the IC50 [5] was under 0.0316 µM and the IC50 [6] was under 0.0316 µM. It also gave a viability, T/C [7] of 60.1%, a viability, T/C [8] of 53.2% and a viability, T/C [9] of 70.5%. It also gave a viability, T/C [10] of 56%, a viability, T/C [11] of 76.2% and a viability, T/C [12] of 74.9%. For the same compound, the viability, T/C [13] was 44.2%, the viability, T/C [14] was 60.9% and the viability, T/C [15] was 62.2%. The viability, T/C [16] was 54.1%, the viability, T/C [17] was 49.7% and the viability, T/C [18] was 56.6%. The viability, T/C [19] was 31.7%, the viability, T/C [20] was 31.4% and the viability, T/C [21] was 42.6%. The viability, T/C [22] was 40.4%, the viability, T/C [23] was 36.7% and the viability, T/C [24] was 41.7%. For the same compound, the viability, T/C [25] was 20%, the viability, T/C [26] was 22.5% and the viability, T/C [27] was 19.5%. It also gave a viability, T/C [28] of 20%, a viability, T/C [29] of 22.1% and a viability, T/C [30] of 26.8%. It also gave a viability, T/C [31] of 19.1%, a viability, T/C [32] of 17.9% and a viability, T/C [33] of 19.6%. For the same compound, the viability, T/C [34] was 21.1%, the viability, T/C [35] was 24.6% and the viability, T/C [36] was 20.4%. It also gave a viability, T/C [37] of 17.7%, a viability, T/C [38] of 19.4% and a viability, T/C [39] of 18.9%. It also gave a viability, T/C [40] of 20%, a viability, T/C [41] of 21.1% and a viability, T/C [42] of 21.8%.
Work on `CCCS(=O)(=O)Nc1ccc(F)c(C(=O)c2c[nH]c3ncc(-c4ccc(Cl)cc4)cc23)c1F` + CN(C)c1ccc(Nc2c3ccc(NC(=O)CCN4CCCC4)cc3nc3cc(NC(=O)CCN4CCCC4)ccc23)cc1 yielded an IC50 [1] of over 10 µM, an IC50 [2] of over 10 µM and an IC50 [3] of over 10 µM. The IC50 [4] was over 10 µM, the IC50 [5] was 6.69 µM and the IC50 [6] was 3.72 µM. For the same compound, the viability, T/C [7] was 124%, the viability, T/C [8] was 89.2% and the viability, T/C [9] was 80.7%. The viability, T/C [10] was 118%, the viability, T/C [11] was 271% and the viability, T/C [12] was 106%. The viability, T/C [13] was 102%, the viability, T/C [14] was 84% and the viability, T/C [15] was 72.4%. The viability, T/C [16] was 109%, the viability, T/C [17] was 264% and the viability, T/C [18] was 106%. It also gave a viability, T/C [19] of 95.5%, a viability, T/C [20] of 90.1% and a viability, T/C [21] of 92.5%. The viability, T/C [22] was 104%, the viability, T/C [23] was 248% and the viability, T/C [24] was 98.3%. For the same compound, the viability, T/C [25] was 95.4%, the viability, T/C [26] was 76.4% and the viability, T/C [27] was 76.8%. For the same compound, the viability, T/C [28] was 171%, the viability, T/C [29] was 251% and the viability, T/C [30] was 85.2%. The viability, T/C [31] was 73%, the viability, T/C [32] was 83.6% and the viability, T/C [33] was 61%. It also gave a viability, T/C [34] of 111%, a viability, T/C [35] of 174% and a viability, T/C [36] of 22.9%. The viability, T/C [37] was 69.9%, the viability, T/C [38] was 68.4% and the viability, T/C [39] was 111%. It also gave a viability, T/C [40] of 100%, a viability, T/C [41] of 58% and a viability, T/C [42] of 2.26%.
With `C#Cc1c(F)ccc2cc(O)cc(-c3ncc4c(N5CC6CCC(C5)N6)nc(OCC56CCCN5CC(F)C6)nc4c3F)c12` (configuration not stated) + CN(C)c1ccc(Nc2c3ccc(NC(=O)CCN4CCCC4)cc3nc3cc(NC(=O)CCN4CCCC4)ccc23)cc1 the IC50 [1] was 1.77 µM, the IC50 [2] was 1.85 µM and the IC50 [3] was 3.39 µM. It also gave an IC50 [4] of 1.4 µM, an IC50 [5] of 0.159 µM and an IC50 [6] of under 0.0316 µM. For the same compound, the viability, T/C [7] was 66.3%, the viability, T/C [8] was 62.5% and the viability, T/C [9] was 57.5%. The viability, T/C [10] was 48.1%, the viability, T/C [11] was 52.5% and the viability, T/C [12] was 41.7%. It also gave a viability, T/C [13] of 74.2%, a viability, T/C [14] of 52.2% and a viability, T/C [15] of 62%. The viability, T/C [16] was 60.8%, the viability, T/C [17] was 40.6% and the viability, T/C [18] was 33.5%. The viability, T/C [19] was 61.3%, the viability, T/C [20] was 57% and the viability, T/C [21] was 62.8%. The viability, T/C [22] was 52.5%, the viability, T/C [23] was 53.1% and the viability, T/C [24] was 32.6%. The viability, T/C [25] was 74.8%, the viability, T/C [26] was 56.4% and the viability, T/C [27] was 60.1%. The viability, T/C [28] was 50%, the viability, T/C [29] was 51.6% and the viability, T/C [30] was 34.2%. It also gave a viability, T/C [31] of 49.7%, a viability, T/C [32] of 63.3% and a viability, T/C [33] of 40.5%. For the same compound, the viability, T/C [34] was 35.8%, the viability, T/C [35] was 29% and the viability, T/C [36] was 16.8%. The viability, T/C [37] was 31.8%, the viability, T/C [38] was 23.6% and the viability, T/C [39] was 15.2%. For the same compound, the viability, T/C [40] was 10.6%, the viability, T/C [41] was 6.1% and the viability, T/C [42] was 1.84%.
In the case of `Cc1[nH]c2ccc(F)cc2c1-c1nc2c3cccnc3c3ncccc3c2[nH]1`, the viability, T/C (compound 0.0316 µM) is reported as 106% [middle of 12 runs], the viability, T/C (compound 0.1 µM) is reported as 100% [middle of 12 runs] and the viability, T/C (compound 1 µM) is reported as 102% [middle of 12 runs]. The viability, T/C (compound 10 µM) was 89.7% [middle of 12 runs], the IC50 (compound alone, run of 04/16/2024) was over 10 µM and the IC50 (compound alone, run of 04/22/2024) was over 10 µM.

From PubChem BioAssay AID2060495 (Molecular Pharmacology Branch, DTP, NCI, 2025)
